Laboratory results taken from patent US10450297B2, “Sulfonyl amide derivatives for the treatment of abnormal cell growth” (Pfizer, Inc., priority 2007, dated 2019).
pIC50: −log10 of the molar value.

Target: FAK kinase (catalytic construct FAK(410-689)) (Homo sapiens (Human), UniProt Q05397)
Assay: FAKcd kinase ELISA (inhibition of poly-glu-tyr phosphorylation by FAK(410-689))
Assay type: biochemical
Conditions: 50 μM final ATP

Chain of FAK kinase (catalytic construct FAK(410-689)) (Q05397 410-689): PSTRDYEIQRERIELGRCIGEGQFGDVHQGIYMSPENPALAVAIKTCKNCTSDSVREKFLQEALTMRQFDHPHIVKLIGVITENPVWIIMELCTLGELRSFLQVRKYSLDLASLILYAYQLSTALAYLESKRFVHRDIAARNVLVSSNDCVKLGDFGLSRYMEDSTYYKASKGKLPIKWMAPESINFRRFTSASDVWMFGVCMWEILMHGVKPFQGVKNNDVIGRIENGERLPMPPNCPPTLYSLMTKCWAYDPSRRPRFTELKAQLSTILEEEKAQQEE

Row | pIC50 | SMILES
1 | 9.22 | CC(=O)NCC(=O)NCc1cccc(Nc2ncc(C(F)(F)F)c(NCc3cccnc3N(C)S(C)(=O)=O)n2)c1 [Compound 223, N-2-acetyl-N-[3-({4-[({2-[methyl(methylsulfonyl)amino]pyridin-3-yl}methyl)amino]-5-(trifluoromethyl)pyrimidin-2-yl}amino)benzyl]glycinamide]
2 | 9.22 | CN(C)C(=O)c1ccc(Nc2ncc(C(F)(F)F)c(NCc3ccccc3N(C)S(C)(=O)=O)n2)cc1 [Compound 224, N,N-dimethyl-4-{[4-({2-[methyl(methylsulfonyl)amino]benzyl}amino)-5-(trifluoromethyl)pyrimidin-2-yl]amino}benzamide]
3 | 9.01 | CN(C)C(=O)c1ccc(Nc2ncc(C(F)(F)F)c(NCc3ccccc3NS(C)(=O)=O)n2)cc1 [Compound 225, N,N-dimethyl-4-{[4-({2-[(methylsuifonyl)amino]benzyl}amino)-5-(trifluoromethyl)pyrimidin-2-yl]amino}benzamide]
4 | 8.53 | Cc1ccc(CNc2nc(Nc3ccc(C(=O)N(C)C)cc3)ncc2C(F)(F)F)c(NS(C)(=O)=O)c1 [Compound 226, N,N-dimethyl-4-{[4-({4-methyl-2-[(methylsulfonyl)amino]benzyl}amino)-5-(trifluoromethyl)pyrimidin-2-yl]amino}benzamide]
5 | 8.66 | CN(C)C(=O)c1ccc(Nc2ncc(C(F)(F)F)c(NCc3cccc(N(C)S(C)(=O)=O)c3)n2)cc1 [Compound 228, N, N-dimethyl-4-{[4-({3-[methyl(methylsulfonyl)amino]benzyl}amino)-5-(trifluoromethyl)pyrimidin-2-yl]amino}benzamide]
6 | 8.62 | CN(C)C(=O)c1ccc(Nc2ncc(C(F)(F)F)c(NCc3cccnc3N(C)S(C)(=O)=O)n2)cc1 [Compound 230, N,N-dimethyl-4-({4-[({2-[methyl(methylsulfonyl)amino]pyridin-3-yl}methyl)amino]-5-(trifluoromethyl)pyrimidin-2-yl}amino)benzamide]
7 | 9.22 | Cc1ccc(CNc2nc(Nc3ccc(C(=O)N(C)C)cc3)ncc2C(F)(F)F)c(N(C)S(C)(=O)=O)n1 [Compound 231, N,N-dimethyl-4-({4-[({6-methyl-2-[methyl(methylsulfonyl)amino]pyridin-3-yl}methyl)amino]-5-(trifluoromethyl)pyrimidin-2-yl}amino)benzamide]
8 | 8.58 | CN(c1ncccc1CNc1nc(Nc2ccc(C(=O)N3C[C@@H](F)[C@H](F)C3)cc2)ncc1C(F)(F)F)S(C)(=O)=O [Compound 232, N-{3-[({2-[(4-{[(3R,4R)-3,4-difluoropyrrolidin-1-yl]carbonyl}phenyl)amino]-5-(trifluoromethyl)pyrimidin-4-yl}amino)methyl]pyridin-2-yl}-N-methylmethane-sulfonamide]
9 | 8.88 | CN(C)CCCNC(=O)c1ccc(Nc2ncc(C(F)(F)F)c(NCc3cccnc3N(C)S(C)(=O)=O)n2)cc1 [Compound 233, N-[3-(dimethylamino)propyl]-4-({4-[({2-[methyl(methylsulfonyl)amino]pyridin-3-yl}methyl)amino]-5-(trifluoromethyl)pyrimidin-2-yl}amino)benzamide]
10 | 8.63 | CN(CCO)C(=O)c1ccc(Nc2ncc(C(F)(F)F)c(NCc3cccnc3N(C)S(C)(=O)=O)n2)cc1 [Compound 234, N-(2-hydroxyethyl)-N-methyl-4-({4-{({2-[methyl(methylsulfonyl)amino]pyridin-3-yl}methyl)amino]-5-(trifluoromethyl)pyrimidin-2-yl}amino)benzamide]
11 | 8.85 | CN(c1ncccc1CNc1nc(Nc2ccc(C(=O)N3CC[C@H](F)C3)cc2)ncc1C(F)(F)F)S(C)(=O)=O [Compound 236, N-{3-[({2-[(4-{[(3S)-3-fluoropyrrolidin-1-yl]carbonyl}phenyl)amino]-5-(trifluoromethyl)pyrimidin-4-yl}amino)methyl]pyridin-2-yl}-N-methylmethane-sulfonamide]
12 | 8.69 | CN(c1ncccc1CNc1nc(Nc2ccc(C(=O)N3CCCC3)cc2)ncc1C(F)(F)F)S(C)(=O)=O [Compound 237, N-methyl-N-[3-({[2-{[4-(pyrrolidin-1-ylcarbonyl)phenyl]amino}-5-(trifluoromethyl)pyrimidin-4-yl]amino}methyl)pyridin-2-yl]methanesulfonamide]
13 | 8.90 | CN(c1ncccc1CNc1nc(Nc2ccc(C(=O)NC[C@H]3CCCO3)cc2)ncc1C(F)(F)F)S(C)(=O)=O [Compound 238, 4-({4-[({2-[methyl(methylsulfonyl)amino]pyridin-3-yl}methyl)amino]-5-(trifluoromethyl)pyrimidin-2-yl}amino)-N-[(2R)-tetrahydrofuran-2-ylmethyl]benzamide]
14 | 9.22 | CN(c1ncccc1CNc1nc(Nc2ccc(C(=O)N3CCC(O)CC3)cc2)ncc1C(F)(F)F)S(C)(=O)=O [Compound 239, N-[3-({[2-({4-[(4-hydroxypiperidin-1-yl)carbonyl]phenyl}amino)-5-(trifluoromethyl)pyrimidin-4-yl]amino}methyl)pyridin-2-yl]-N-methylmethane-sulfonamide]
15 | 9.16 | CN(c1ncccc1CNc1nc(Nc2ccc(C(=O)NC3CCC3)cc2)ncc1C(F)(F)F)S(C)(=O)=O [Compound 240, N-cyclobutyl-4-({4-[({2-[methyl(methylsulfonyl)amino]pyridin-3-yl}methyl)amino]-5-(trifluoromethyl)pyrimidin-2-yl}amino)benzamide]
16 | 9.22 | CC(C)C(CO)NC(=O)c1ccc(Nc2ncc(C(F)(F)F)c(NCc3cccnc3N(C)S(C)(=O)=O)n2)cc1 (stereo not shown) [Compound 241, N-[1-(hydroxymethyl)-2-methylpropyl]-4-({4-[{{2-[methyl(methylsulfonyl)amino]pyridin-3-yl}methyl)amino]-5-(trifluoromethyl)pyrimidin-2-yl}amino)benzamide]
17 | 9.00 | CC(C)NC(=O)c1ccc(Nc2ncc(C(F)(F)F)c(NCc3cccnc3N(C)S(C)(=O)=O)n2)cc1 [Compound 242, N-isopropyl-4-({4-[({2-[methyl(methylsulfonyl)amino]pyridin-3-yl}methyl)amino]-5-(trifluoromethyl)pyrimidin-2-yl}amino)benzamide]
18 | 8.68 | CN(CC1CC1)C(=O)c1ccc(Nc2ncc(C(F)(F)F)c(NCc3cccnc3N(C)S(C)(=O)=O)n2)cc1 [Compound 243]
19 | 8.95 | CN(c1ncccc1CNc1nc(Nc2ccc(C(=O)NCCO)cc2)ncc1C(F)(F)F)S(C)(=O)=O [Compound 244, N-(2-hydroxyethyl)-4-({4-[({2-[methyl(methylsulfonyl)amino]pyridin-3-yl}methyl)amino]-5-(trifluoromethyl)pyrimidin-2-yl}amino)benzamide]
20 | 8.58 | CC(=O)NCCNC(=O)c1ccc(Nc2ncc(C(F)(F)F)c(NCc3cccnc3N(C)S(C)(=O)=O)n2)cc1 [Compound 245, N-[2-(acetylamino)ethyl]-4-({4-[({2-[methyl(methylsulfonyl)amino]pyridin-3-yl}methyl)amino]-5-(trifluoromethyl)pyrimidin-2-yl}amino)benzamide]
21 | 9.22 | CN(c1ncccc1CNc1nc(Nc2ccc(C(=O)NCC3(O)CCC3)cc2)ncc1C(F)(F)F)S(C)(=O)=O [Compound 246, N-[(1-hydroxycyclobutyl)methyl]-4-({4-[({2-[methyl(methylsulfonyl)amino]pyridin-3-yl}methyl)amino]-5-(trifluoromethyl)pyrimidin-2-yl}amino)benzamide]
22 | 9.20 | CN(c1ncccc1CNc1nc(Nc2ccc(C(=O)N3CCCC(O)C3)cc2)ncc1C(F)(F)F)S(C)(=O)=O (stereo not shown) [Compound 247, N-[3-({[2-({4-[(3-hydroxypiperidin-1-yl)carbonyl]phenyl}amino)-5-(trifluoromethyl)pyrimidin-4-yl]amino}methyl)pyridin-2-yl]-N-methylmethane-sulfonamide]
23 | 8.03 | CN(c1ncccc1CNc1nc(Nc2ccc(C(=O)NCc3ccccn3)cc2)ncc1C(F)(F)F)S(C)(=O)=O [Compound 248, 4-({4-[({2-[methyl(methylsulfonyl)amino]pyridin-3-yl}methyl)amino]-5-(trifluoromethyl)pyrimidin-2-yl}amino)-N-(pyridin-2-ylmethyl)benzamide]
24 | 8.72 | CN(c1ncccc1CNc1nc(Nc2ccc(C(=O)N3CC[C@@H](O)C3)cc2)ncc1C(F)(F)F)S(C)(=O)=O [Compound 249, N-{3-[({2-[(4-{[(3R)-3-hydroxypyrrolidin-1-yl]carbonyl}phenyl)amino]-5-(trifluoromethyl)pyrimidin-4-yl}amino)methyt]pyridin-2-yl}-N-methylmethane-sulfonamide]
25 | 9.16 | CN1CCC(NC(=O)c2ccc(Nc3ncc(C(F)(F)F)c(NCc4cccnc4N(C)S(C)(=O)=O)n3)cc2)CC1 [Compound 250, 4-({4-[({2-[methyl(methylsulfonyl)amino]pyridin-3-yl}methyl)amino]-5-(trifluoromethyl)pyrimidin-2-yl}amino)-N-(1-methylpiperidin-4-yl)benzamide]
26 | 8.92 | CN(C)CCNC(=O)c1ccc(Nc2ncc(C(F)(F)F)c(NCc3cccnc3N(C)S(C)(=O)=O)n2)cc1 [Compound 251, N-[2-(dimethylamino)ethyl]-4-({4-[({2-[methyl(methylsulfonyl)amino]pyridin-3-yl}methyl)amino]-5-(trifluoromethyl)pyrimidin-2-yl}amino)benzamide]
27 | 8.83 | CN(c1ncccc1CNc1nc(Nc2ccc(C(=O)NCC3CC3)cc2)ncc1C(F)(F)F)S(C)(=O)=O [Compound 252, N-(cyclopropylmethyl)-4-({4-[({2-[methyl(methylsulfonyl)amino}pyridin-3-yl}methyl)amino]-5-(trifluoromethyl)pyrimidin-2-yl}amino)benzamide]
28 | 9.22 | CN(c1ncccc1CNc1nc(Nc2ccc(C(=O)N3CCC3)cc2)ncc1C(F)(F)F)S(C)(=O)=O [Compound 253, N-[3-({[2-{[4-(azetidin-1 - ylcarbonyl)phenyl]amino}-5-(trifluoromethyl)pyrimidin-4-yl]amino}methyl)pyridin-2-yl]-N-methylmethane-sulfonarriide]
